Legend:
HECFCs = test: flow cytometry ligand-cell binding, HECFCs; design: species or system human; details: biotinylated ligand 1 μM, streptavidin-phycoerythrin
Procedure: (§1) FIG. 10 presents flow cytometry data from an assay of binding affinity of LXW7 and GRGD (SEQ ID NO: 1) to different cell types. Tests included EPCs/ECs from different sources, including HECFCs (A), HCAECs (B), HMVECs (C), and THP-1 monocytes (D), Platelets (E), as well as K562 cells engineered to highly express αvβ3 (αvβ3-K562, F), and αIIbβ3 (αIIbβ3-K562, G). Cells were incubated with the LXW7-bio, GRGD-bio (SEQ ID NO: 1), or D-Biotin peptide and subsequently incubated with streptavidin-phycoerythrin. Flow cytometry analysis was performed to determine the binding affinity of the ligands. Samples treated with D-biotin were used as negative controls.
(§2) LXW7-bio (1 μM) was incubated with 3×10^5 HECFCs, HCAECs, HMVECs, αvβ3-K562 and αIIbβ3-K562 cells and THP-1 monocytes and 1×10^8 platelets in binding buffer (HEPES containing 10% FBS) on ice for 30 minutes. The samples were washed three times with DPBS containing 1% FBS and incubated with 2 μg/ml of streptavidin-phycoerythrin on ice for 30 minutes and then washed with DPBS. Samples were analyzed on a BD Fortessa LSR Cell Analyzer and further data analysis and gating were performed using FlowJo software (Treestar, Inc.).

HCAECs [1] = test: flow cytometry ligand-cell binding, HCAECs; design: species or system human; details: biotinylated ligand 1 μM, streptavidin-phycoerythrin
Procedure: as §1, §2

platelets = test: flow cytometry ligand-cell binding, platelets; details: biotinylated ligand 1 μM
Procedure: as §1, §2

HCAECs [2] = test: attachment assay on ligand treated culture surfaces, HCAECs; type: cell-based, human; details: 10 minutes
From the text: Ligands LXW7, LXY30, and LLP2A were synthesized as in U.S. Pat. No. 9,073,974. Biotinylated LXW7 (LXW7-bio) and biotinylated GRGD (GRGD-bio) (SEQ ID NO: 1) were synthesized using established solid phase peptide synthesis protocols (Xiao et al. (2010) Mol Cancer Therapeutics 9:2714). Peptide-bio was designed to have biotin attached to the side chain of Lys, with two hydrophilic linkers between peptide and Lys (biotin). To modify culture surface with ligands, target culture wells in a 24-well plate were coated with 500 μL of 20 μg/mL Avidin (Thermo Fisher Scientific), and incubated for 1 hour at 37° C. Avidin coated wells were rinsed three times with DPBS and were treated with 500 μL molar equivalents (2 μM) of D-biotin (Thermo Fisher Scientific), LXW7-bio, or GRGD-bio (SEQ ID NO: 1). After 1 hour, the wells were washed three times with DPBS and blocked with 1% bovine serum albumin (BSA; Thermo Fisher Scientific) for 1 hour. After the wells were rinsed three times with DPBS, for cell attachment assay, 5×10^4 HCAECs and THP-1 monocytes suspended in the respective maintenance medium were added to the wells and incubated for 10 minutes or 16 hours at 37° C., 5% CO2, respectively. After each time point the wells were washed three times with DPBS, and the adhered cells were fixed in 10% formalin (Azer Scientific) for 20 minutes. For platelets attachment assay, the PRP was centrifuged, and the platelet pellet was resuspended in 1% BSA with 2 mM CaCl2 and 1 mM MgCl2 to achieve a final concentration of 1×10^8 platelets/mL, added to the wells at a density of 5×10^7 platelets/cm^2, and incubated for 16 hours at 37° C., 5% CO2. The wells were washed three times with DPBS, and the adhered cells were fixed in 10% formalin for 20 min. The HCAECs wells were washed with DPBS again and blocked for 1 hour with 1% BSA. An additional wash was performed, and the plate was incubated overnight with mouse anti-PECAM-1 antibody (1:100; Abcam) in 1% BSA at 4° C. […] Five images were randomly taken from each sample and quantification of images was performed using the Image J software (NIH).

THP-1 monocytes = test: attachment assay on ligand treated culture surfaces, THP-1 monocytes; type: cell-based; details: 16 hours
From the text: Ligands LXW7, LXY30, and LLP2A were synthesized as in U.S. Pat. No. 9,073,974. Biotinylated LXW7 (LXW7-bio) and biotinylated GRGD (GRGD-bio) (SEQ ID NO: 1) were synthesized using established solid phase peptide synthesis protocols (Xiao et al. (2010) Mol Cancer Therapeutics 9:2714). Peptide-bio was designed to have biotin attached to the side chain of Lys, with two hydrophilic linkers between peptide and Lys (biotin). To modify culture surface with ligands, target culture wells in a 24-well plate were coated with 500 μL of 20 μg/mL Avidin (Thermo Fisher Scientific), and incubated for 1 hour at 37° C. Avidin coated wells were rinsed three times with DPBS and were treated with 500 μL molar equivalents (2 μM) of D-biotin (Thermo Fisher Scientific), LXW7-bio, or GRGD-bio (SEQ ID NO: 1). After 1 hour, the wells were washed three times with DPBS and blocked with 1% bovine serum albumin (BSA; Thermo Fisher Scientific) for 1 hour. After the wells were rinsed three times with DPBS, for cell attachment assay, 5×10^4 HCAECs and THP-1 monocytes suspended in the respective maintenance medium were added to the wells and incubated for 10 minutes or 16 hours at 37° C., 5% CO2, respectively. […] Five images were randomly taken from each sample and quantification of images was performed using the Image J software (NIH).

VEGFR2 (Tyr1175) = test: Western-blot analysis, phosphorylation of VEGFR2; type: cell-based, human; details: LXW7 treated surface, 96 hours, vs D-biotin
Procedure: (§3) The 100-mm dishes from Example 2 were treated with Avidin followed by LXW7-bio or D-biotin as described in Example 5. 8×10^5 HCAECs were seeded per dish and cultured in EGM-2 media for 4 days. Cells were lysed using Extraction Kit (Thermo Fisher Scientific) and protein concentrations were determined using BCA Protein Assay (Thermo Fisher Scientific). Fifteen μg of each sample were loaded and separated using a 4-12% Bis-Tris NuPAGE gel (Thermo Fisher Scientific) and transferred to a nitrocellulose membrane. The membrane was blocked in 5% BSA in TBST (Tris-buffered saline with 0.5% Tween-20), and subsequently incubated with primary antibodies anti-VEGF Receptor 2, anti-Phospho-VEGF Receptor 2, anti-p44/42 MAPK (Erk1/2) and anti-Phospho-p44/42 MAPK (Erk1/2) (Thr202/Tyr204), all purchased from Cell Signaling Technologies, in 1% BSA overnight at 4° C. After washing three times with TBST, the membranes were incubated with respective horseradish peroxidase-conjugated secondary antibodies in 1% non-fat dry milk in TBST (BioRad) for 1 hour at room temperature. After washing, the protein bands were visualized using West Dura Substrate (Thermo Fisher Scientific) and quantified using Image J software.

ERK1/2 = test: Western-blot analysis, phosphorylation of ERK1/2; type: cell-based, human; details: LXW7 treated surface, 96 hours, vs D-biotin
Procedure: as §3

EGFR = test: mRNA level of EGFR on EPCs; type: cell-based; details: EPCs treated with LXW7
Procedure: FIG. 15 presents graphs of mRNA levels of VEGFR-2 (A) and EGFR (B) on EPCs after treating with different concentrations of LXW7 for 48 h. *P<0.05 vs. Control, #P<0.05 vs. 25 nM (n=10 per group).

cGRGDdvc [LXW7]
binding affinity to HECFCs by flow cytometry (HECFCs): higher binding affinity with different types of EPCs/ECs than conventional GRGD peptide | binding affinity to HCAECs by flow cytometry (HCAECs [1]): higher binding affinity with different types of EPCs/ECs than conventional GRGD peptide | binding affinity with platelets by flow cytometry (platelets): very low binding affinity with platelets | attachment of HCAECs on ligand treated surface (HCAECs [2]; avidin + biotinylated ligand 2 μM): bound to both LXW7 and GRGD | number of attached HCAECs, LXW7 vs GRGD surface (HCAECs [2]; quantified): attracted more HCAECs than the GRGD-modified | THP-1 monocyte attachment on ligand treated surface (THP-1 monocytes): did not support THP-1 monocyte attachment | phosphorylation of VEGFR2 (Tyr1175) in ECs (VEGFR2 (Tyr1175)): significantly increased | phosphorylation of ERK1/2 in ECs (ERK1/2): significantly increased | EGFR mRNA level (EGFR): increases in VEGFR2 and EGFR mRNA levels were found to be dependent on treatment time

— patent publication US11246961B2, “Engineered scaffolds for vascularized tissue repair” (The Regents of the University of California, priority 2016, dated 2022)
